Assays:
[1] = target: T1, Beta-2 adrenergic receptor (Homo sapiens, UniProt P07550); test: Agonist activity at human beta2 adrenoceptor expressed in H292 cells assessed as increase in cAMP accumulation after 60 mins by spectrophotometry; assay type: functional, cell-based
[2] = target: T1, Beta-2 adrenergic receptor; test: Displacement of radiolabeled iodocyanopindolol from recombinant beta2 adrenoceptor
[3] = target: Beta-1 adrenergic receptor (Homo sapiens, UniProt P08588); test: Displacement of radiolabeled iodocyanopindolol from beta1 adrenoceptor
[4] = target: T2, Alpha-1D adrenergic receptor (Homo sapiens, UniProt P25100); test: Displacement of radiolabeled Prazosin from alpha1D adrenoceptor
T2 sequence (P25100 whole entry): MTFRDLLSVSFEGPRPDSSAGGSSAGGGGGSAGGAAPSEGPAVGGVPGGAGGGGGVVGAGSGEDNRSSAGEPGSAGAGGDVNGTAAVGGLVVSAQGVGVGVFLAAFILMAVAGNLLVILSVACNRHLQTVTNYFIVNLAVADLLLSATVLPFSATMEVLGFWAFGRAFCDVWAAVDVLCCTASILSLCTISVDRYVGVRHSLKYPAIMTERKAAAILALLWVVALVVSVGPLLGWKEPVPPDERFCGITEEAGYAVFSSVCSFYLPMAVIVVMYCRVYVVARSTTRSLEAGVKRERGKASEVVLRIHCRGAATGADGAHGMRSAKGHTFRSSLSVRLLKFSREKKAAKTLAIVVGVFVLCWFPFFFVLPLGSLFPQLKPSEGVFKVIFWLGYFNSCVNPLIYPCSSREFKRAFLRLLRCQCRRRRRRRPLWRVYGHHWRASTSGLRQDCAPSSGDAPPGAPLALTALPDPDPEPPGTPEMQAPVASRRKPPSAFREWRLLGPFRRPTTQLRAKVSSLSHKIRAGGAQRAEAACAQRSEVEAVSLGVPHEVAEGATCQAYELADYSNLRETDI

D(2) dopamine receptor = D(2) dopamine receptor (Homo sapiens, UniProt P14416); test: Displacement of radiolabeled spiperone from dopamine D2 receptor
[5] = octanol/water, pH 7.4

T1 sequence (P07550 whole entry): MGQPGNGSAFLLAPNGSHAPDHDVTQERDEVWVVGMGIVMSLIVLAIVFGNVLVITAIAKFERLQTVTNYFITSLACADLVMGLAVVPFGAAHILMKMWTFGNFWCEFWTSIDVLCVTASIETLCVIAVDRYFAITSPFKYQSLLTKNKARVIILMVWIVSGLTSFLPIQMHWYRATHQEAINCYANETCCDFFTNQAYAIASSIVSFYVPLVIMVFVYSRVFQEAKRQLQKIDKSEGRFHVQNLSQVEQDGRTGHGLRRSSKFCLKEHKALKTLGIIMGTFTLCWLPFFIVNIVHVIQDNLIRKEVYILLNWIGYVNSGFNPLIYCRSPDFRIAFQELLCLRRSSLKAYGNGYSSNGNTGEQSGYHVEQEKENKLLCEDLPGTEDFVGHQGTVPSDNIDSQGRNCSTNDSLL
Chain of D(2) dopamine receptor (P14416 whole entry): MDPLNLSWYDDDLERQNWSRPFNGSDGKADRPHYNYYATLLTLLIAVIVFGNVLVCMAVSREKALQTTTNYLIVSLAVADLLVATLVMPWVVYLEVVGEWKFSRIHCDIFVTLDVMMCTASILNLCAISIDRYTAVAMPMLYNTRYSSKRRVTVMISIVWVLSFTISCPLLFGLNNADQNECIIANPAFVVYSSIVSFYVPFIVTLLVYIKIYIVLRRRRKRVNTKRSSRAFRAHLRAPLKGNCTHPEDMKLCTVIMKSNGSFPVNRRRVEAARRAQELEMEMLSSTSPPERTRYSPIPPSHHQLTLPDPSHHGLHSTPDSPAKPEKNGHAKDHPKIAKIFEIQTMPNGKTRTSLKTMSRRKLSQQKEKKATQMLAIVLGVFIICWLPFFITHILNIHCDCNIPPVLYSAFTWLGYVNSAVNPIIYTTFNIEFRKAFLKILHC
Chain of Beta-1 adrenergic receptor (P08588 whole entry): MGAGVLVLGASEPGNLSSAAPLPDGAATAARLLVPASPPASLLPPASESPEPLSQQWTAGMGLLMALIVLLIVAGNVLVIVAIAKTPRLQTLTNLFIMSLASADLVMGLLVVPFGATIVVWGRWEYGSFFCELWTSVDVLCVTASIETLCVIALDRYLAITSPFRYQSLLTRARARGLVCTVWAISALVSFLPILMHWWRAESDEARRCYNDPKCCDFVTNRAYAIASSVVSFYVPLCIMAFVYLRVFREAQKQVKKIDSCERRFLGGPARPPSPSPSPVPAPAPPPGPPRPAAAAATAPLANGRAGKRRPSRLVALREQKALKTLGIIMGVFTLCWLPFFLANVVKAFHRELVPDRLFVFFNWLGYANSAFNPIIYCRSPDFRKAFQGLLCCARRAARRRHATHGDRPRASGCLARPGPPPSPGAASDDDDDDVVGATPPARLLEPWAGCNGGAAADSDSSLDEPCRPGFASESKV

Molecule `O=c1[nH]c2c(O)ccc([C@@H](O)CNCCc3cccc(CN4CCCC4)c3)c2s1` has an EC50 [1] of 0.631 nM, an IC50 [2] of 3.98 nM and an IC50 [3] of 316 nM. The IC50 [4] was 1000 nM, the IC50 (D(2) dopamine receptor) was 3160 nM and the logD [5] was 0.8.

Reference: ChEMBL document CHEMBL1944599, “From libraries to candidate: the discovery of new ultra long-acting dibasic β₂-adrenoceptor agonists” (Bioorg Med Chem Lett, 2012)
